Measured values reported in US20210386829A1, “COMPOSITIONS AND METHODS FOR MODULATING CGRP SIGNALING TO REGULATE INNATE LYMPHOID CELL INFLAMMATORY RESPONSES” (The Broad Institute, Inc., priority 2018, published 2021).

Tested on: lung-resident ILCs
Assay: SMART-Seq2 plate-based scRNA-seq of lung-resident ILCs from PBS-, IL-25- or IL-33-treated mice, differential gene expression by logistic regression (Tables 3, 4)
Assay type: in vivo, mouse
Source text: Mice and in vivo ILC activation. C57B1/6J mice were purchased from the Jackson Laboratory. Nmur1-LacZ reporter mice with a LacZ cassette knocked into the Nmur1 locus were rederived from Nmur1^tm1.1(KOMP)Vlcg sperm obtained from the trans-NIH Knock-Out Mouse Project (KOMP) Repository. NMU-deficient mice (NMU-KO) were rederived from B6.129S2-Nmu<tm1Mko> embryos from the RIKEN BioResource Center. For experiments with Nmur1-LacZ (Nmur1-KO) and NMU-KO mice, littermates that were either homozygous or heterozygous for the wild type allele were used as controls. Mice were housed under specific-pathogen-free conditions. For experiments, mice were matched for sex and age, and most mice were 6-10 weeks old. Where indicated, mice were anesthetized with Isoflurane and treated intranasally with the indicated stimuli (500 ng IL-25, 500 ng IL-33, or 20 μg Neuromedin U) daily for three consecutive days. The total administered volume was 20 μl for all conditions. Mice were randomly assigned to treatment groups after matching for sex and age. […] Mice were treated intranasally with 10 μg HDM on day 0, 7, 8, and 9, prior to sacrifice on day 10. All experiments were conducted in accordance with animal protocols approved by the Harvard Medical Area Standing Committee on Animals or BWH IACUC.
Fluorescence-activated cell sorting of innate lymphoid cells. After dissociation, single cell suspensions were incubated with CD90.2 MicroBeads (Miltenyi Biotec) on ice and enriched for CD90.2^+ cells by magnetic separation using LS columns according to the manufacturer's protocol. CD90.2^+ lung cells were then stained on ice with antibodies for sorting. ILCs were defined as 7AAD^− CD45^+ CD90.2^+ CD127^+ Lineage (CD11b, CD11c, CD19, NK1.1, […], CD4, CD8a, TCRβ, TCRγδ)^− cells and sorted on a BD FACS Aria (BD Biosciences).
For full-length scRNA-Seq, single ILCs were sorted into 96-well plates containing 5 ul TCL Buffer (QIAGEN) with 1% 2-Mercaptoethanol, centrifuged and frozen at −80° C. SMART-Seq2 protocol was carried out as previously described^23 with minor modifications in the reverse transcription step. cDNA was amplified with 22 cycles and fragmented with one-eighth of the standard Illumina NexteraXT reaction volume. Single-cell libraries were pooled and paired-end sequenced (38 bp×2) with a 75 cycle Nextseq 500 high output V2 kit.
Analysis of SMART-Seq2 plate-based scRNA-Seq data. Reads were aligned to mm10 using Kallisto (Bray, N. L., Pimentel, H., Meisted, P. & Pachter, L. Near-optimal probabilistic RNA-seq quantification. Nat Biotechnol 134, 525-527, doi:10.1038/nbt.3519 (2016)) quant, version 0.42.3. The R package tximport (Soneson, C., Love, M. I. & Robinson, M. D. Differential analyses for RNA-seq: transcript-level estimates improve gene-level inferences [version 2; referees: 2 approved]. F1000Research 4, doi:10.12688/f1000research.7563.2 (2016)), version 1.2.0, was used to convert the output to gene counts and traditional TPM values. Because of the variability in read counts per cell across plates, even from the same condition, as well as in the number of genes per cell across conditions, QC was performed for each of eight plates individually in order to remove cells that were outliers with respect to either measure. Out of 752 cells, 606 cells met QC criteria (234 from control, 152 from IL-25 treated mice, and 220 from IL-33 treated mice), and the number of genes per cell in this set ranged from 1,625 to 6,375. Genes that were not expressed with log(TPM)>2.5 in at least two cells were removed from further analysis. Subsequent analysis proceeded analogously to the droplet-based RNA-seq analysis, with parameter settings that reflected both the wider dynamic range of expression and much smaller cell numbers. The minimum ILC signature score required in ILC type assignment was 0.3. Variable genes were identified by running MeanVarPlot with x.low.cutoff=0.1, y.cutoff=1.5, and x.high.cutoff=10, resulting in a set of 519 genes. […]

IL33
0610031J06Rik expression coeff: 1.33 | 1700017B05Rik expression coeff: −1.5 | 1700113H08Rik expression coeff: −1.32 | 4632428N05Rik expression coeff: 1.58 | AA467197 expression coeff: 2.99 | AI593442 expression coeff: −3.15 | AI836003 expression coeff: −1.26 | AW112010 expression coeff: 0.998 | Abtb2 expression coeff: 1.34 | Acot7 expression coeff: 1.78 | Adrbk1 expression coeff: 1.08 | Adsl expression coeff: −0.98 | Ahcyl2 expression coeff: −1.24 | Amd1 expression coeff: −1.75 | Anxa2 expression coeff: 1.81 | Ap3d1 expression coeff: 0.94 | Arf5 expression coeff: 0.972 | Arhgap1 expression coeff: 1.12 | Arhgap26 expression coeff: 1.3 | Asl expression coeff: 1.31 | Asph expression coeff: −1.56 | Atp8b4 expression coeff: 1.07 | Atxn7l3b expression coeff: 0.957 | Bcl2a1d expression coeff: 0.97 | Bcl3 expression coeff: 1.42 | Bcl6 expression coeff: 1.98 | Bmp2 expression coeff: −2.03 | Brix1 expression coeff: −1.21 | C1qbp expression coeff: −1.08 | Cap1 expression coeff: 1.24 | Cblb expression coeff: 0.969 | Ccdc50 expression coeff: 0.948 | Ccdc142 expression coeff: −1.56 | Ccng1 expression coeff: 0.916 | Ccr2 expression coeff: −1.11 | Cd247 expression coeff: 1.52 | Chdh expression coeff: 1.07 | Chordc1 expression coeff: 1.09 | Chst11 expression coeff: 1.25 | Cirbp expression coeff: −1.67 | Commd10 expression coeff: −1.3 | Cox10 expression coeff: 0.894 | Cpsf7 expression coeff: 1.13 | Crlf2 expression coeff: 1.16 | Csf1 expression coeff: −1.61 | Cst7 expression coeff: 1.5 | Ctla4 expression coeff: 2.65 | Ctsw expression coeff: 1.07 | Cybrd1 expression coeff: −1.22 | Dcaf12 expression coeff: 0.975 | Ddrgk1 expression coeff: −0.935 | Ddx20 expression coeff: −1.92 | Ddx58 expression coeff: 0.912 | Dennd5a expression coeff: 0.993 | Dgka expression coeff: 1.02 | Dhx35 expression coeff: −1.51 | Dhx37 expression coeff: −0.889 | Dhx58 expression coeff: 2.39 | Dkk3 expression coeff: 0.959 | Dock10 expression coeff: −0.886 | E030030I06Rik expression coeff: −1.01 | Ecm1 expression coeff: 1.16 | Endod1 expression coeff: 1.51 | Epsti1 expression coeff: 1.72 | Eva1b expression coeff: 1.29 | Exosc4 expression coeff: −0.925 | Extl3 expression coeff: −1.19 | Fam118a expression coeff: −0.991 | Fbxl21 expression coeff: −2.6 | Ffar2 expression coeff: 1.38 | Fhl2 expression coeff: −0.933 | Fosb expression coeff: −0.948 | Foxo3 expression coeff: 1.17 | Fus expression coeff: −0.954 | Gal3st3 expression coeff: −1.08 | Gba expression coeff: 0.976 | Gbp4 expression coeff: 0.935 | Gbp6 expression coeff: 1.87 | Gbp9 expression coeff: 1.12 | Gga1 expression coeff: 1.33 | Gigyf1 expression coeff: −0.966 | Glrx expression coeff: 1.26 | Gm12250 expression coeff: 3.39 | Gnai2 expression coeff: 1.04 | Gng2 expression coeff: 1.35 | Gnl3l expression coeff: −1.25 | Gp49a expression coeff: 1.62 | Gpr108 expression coeff: 0.909 | Grn expression coeff: 1.55 | Gskip expression coeff: 1.72 | Gucd1 expression coeff: 1.09 | H2-T9 expression coeff: 1.1 | H2-T10 expression coeff: 0.906 | H2-T22 expression coeff: 1.27 | Herc6 expression coeff: 1.21 | Hpcal1 expression coeff: 1.26 | Hsph1 expression coeff: 1.26 | Idh2 expression coeff: −1.43 | Ifi35 expression coeff: 0.95 | Ifngr2 expression coeff: −0.881 | Ifrd2 expression coeff: −1.74 | Igfbp4 expression coeff: −2.3 | Igsf5 expression coeff: −1.13 | Il2rb expression coeff: 1.27 | Il5 expression coeff: 1.34 | Il13 expression coeff: 1.57 | Impact expression coeff: −1.54 | Inpp1 expression coeff: 1.29 | Inpp4b expression coeff: −0.999 | Inpp5b expression coeff: 1.22 | Irf4 expression coeff: 1.58 | Irf7 expression coeff: 1.43 | Isg15 expression coeff: 3.16 | Isg20 expression coeff: 2.26 | Itgae expression coeff: 1.21 | Kit expression coeff: −1.23 | Krit1 expression coeff: 1.04 | Lamp2 expression coeff: 0.996 | Lancl1 expression coeff: −1.58 | Lat2 expression coeff: 1.05 | Lcmt2 expression coeff: −1.12 | Lgals3bp expression coeff: 1.95 | Lgals3 expression coeff: 1.4 | Lilrb4 expression coeff: 2.11 | Lpcat2 expression coeff: −1.56 | Lsm6 expression coeff: −1.12 | Lxn expression coeff: 1.29 | Ly6a expression coeff: 1.67 | Map2k4 expression coeff: 1.64 | Marf1 expression coeff: 1.15 | Med16 expression coeff: −0.941 | Mfsd1 expression coeff: 1.05 | Mgat1 expression coeff: 1.21 | Mgat5 expression coeff: 1.08 | Mier3 expression coeff: −1.41 | Mkl2 expression coeff: −0.923 | Mlec expression coeff: 0.999 | Morc3 expression coeff: 1.05 | Mov10 expression coeff: 1.45 | Mplkip expression coeff: −1.13 | Mrp63 expression coeff: 1.21 | Mrpl40 expression coeff: −1.08 | Mrpl52 expression coeff: 0.944 | Mrpl53 expression coeff: −1.26 | Mrps18a expression coeff: −1.11 | Ms4a4b expression coeff: 2.44 | Ms4a6b expression coeff: 2.02 | Mtfmt expression coeff: −1.57 | Mxd1 expression coeff: 1.05 | Mybbp1a expression coeff: −0.978 | Myg1 expression coeff: −1.26 | Myo1f expression coeff: 1.04 | Myo1g expression coeff: 1.31 | Naa60 expression coeff: 1.11 | Nbn expression coeff: −1.39 | Ndufaf3 expression coeff: 1.52 | Neu3 expression coeff: −1.92 | Nfil3 expression coeff: 1.77 | Nipal1 expression coeff: 1.74 | Nlrc5 expression coeff: 1.3 | Nol6 expression coeff: −1.23 | Nol9 expression coeff: −1.02 | Nop56 expression coeff: −1.41 | Npc2 expression coeff: 1.53 | Npnt expression coeff: 0.949 | Nrip1 expression coeff: 1.07 | Nsmaf expression coeff: 0.914 | Oas1a expression coeff: 2.09 | Ogfr expression coeff: 1.12 | Omd expression coeff: −1.13 | Parp3 expression coeff: 1.21 | Parp10 expression coeff: 1.34 | Parp14 expression coeff: 1.21 | Paxip1 expression coeff: −0.998 | Pdcd1 expression coeff: 1.35 | Pde4b expression coeff: 1.24 | Per1 expression coeff: −1.16 | Pfas expression coeff: −1.41 | Phc3 expression coeff: 0.936 | Phf11a expression coeff: 1.98 | Phf11b expression coeff: 1.89 | Picalm expression coeff: 1 | Pigv expression coeff: −1.36 | Pin4 expression coeff: 1.28 | Plac8 expression coeff: 1.62 | Plekha5 expression coeff: −1.23 | Plxdc2 expression coeff: −0.903 | Pml expression coeff: 1.2 | Ppif expression coeff: −1.91 | Ppp1r15a expression coeff: −1.09 | Pydc4 expression coeff: 1.37 | Pyhin1 expression coeff: 1.04 | Rab7l1 expression coeff: 2.2 | Rab8b expression coeff: 1.03 | Rab33b expression coeff: −1.1 | Rdh1 expression coeff: −1.91 | Rdh13 expression coeff: −1.75 | Rilpl2 expression coeff: 1.43 | Rnf125 expression coeff: 1.06 | Rtp4 expression coeff: 2.55 | Samd9l expression coeff: 1.2 | Sbno2 expression coeff: 1.2 | Sdc4 expression coeff: −0.924 | Sdccag3 expression coeff: 1.08 | Sema4a expression coeff: −0.903 | Sema4d expression coeff: 1.28 | Sesn3 expression coeff: 1.18 | Shank2 expression coeff: −3.62 | Sipa1 expression coeff: 1.34 | Slc25a24 expression coeff: 1.33 | Slc44a2 expression coeff: 1.22 | Slfn2 expression coeff: 1.6 | Smn1 expression coeff: −1.01 | Sntb1 expression coeff: 1.19 | Soat1 expression coeff: 1.07 | Socs1 expression coeff: −1.32 | Socs2 expression coeff: −1.33 | Socs3 expression coeff: 1.44 | Sp100 expression coeff: 1.07 | Sptssa expression coeff: −0.952 | Ssr3 expression coeff: 0.999 | St3gal6 expression coeff: −1.32 | Stab1 expression coeff: 1.65 | Stat1 expression coeff: 1.23 | Syt11 expression coeff: 0.979 | Taf1d expression coeff: 1.1 | Tango6 expression coeff: −2.16 | Tap1 expression coeff: 1.17 | Tap2 expression coeff: 1.07 | Tet3 expression coeff: 1.32 | Tmem33 expression coeff: 1.08 | Tmem176a expression coeff: −1 | Tmem176b expression coeff: −1.23 | Tmem209 expression coeff: −1.27 | Tmem229b expression coeff: 1.01 | Tnfrsf18 expression coeff: −1.12 | Tnfsf10 expression coeff: −1.88 | Tpm4 expression coeff: 0.969 | Tradd expression coeff: 1.29 | Trafd1 expression coeff: 1.81 | Trim12c expression coeff: 1.16 | Trim30a expression coeff: 1.18 | Trim34a expression coeff: 1.29 | Trim30d expression coeff: 1.14 | Trip13 expression coeff: −2.7 | Trp53inp1 expression coeff: 1.16 | Ttc19 expression coeff: 1.44 | Ttc39b expression coeff: 1.16 | Ube2h expression coeff: 1.05 | Usp18 expression coeff: 1.6 | Usp36 expression coeff: −1.09 | Vdr expression coeff: 2.04 | Vmp1 expression coeff: 1.4 | Xrcc3 expression coeff: −1.02 | Zbp1 expression coeff: 2.38 | Zc3h12a expression coeff: −1.12 | Zcchc10 expression coeff: −0.914 | Zfand6 expression coeff: 1.38 | Zfc3h1 expression coeff: 1.14 | Zfp110 expression coeff: −1.24 | Zfp825 expression coeff: −1.02
